Experimental data published in US5652097A, “In vitro test to evaluate the inhibition potency of angiotensin II antagonists on angiotensinogen” (priority 1994, dated 1997).

Columns and labels:
[1] = test system: expression of pOCAT (ANG N-1498/+18) in Hepa 1-6 cells; conditions: cited from earlier work
[2] = test system: expression of pOGH (ANG N-1498/+18) in Hep G-TW7 cells; experiment: Stimulation of expression of pOGH (ANG N-1498/+18) in stable Hep G-TW7 cells by angiotensins, IR-hGH by RIA; assay type: cell-based, human; conditions: 24 hours; for concentration giving maximal stimulation of expression of pOGH (ANG N-1498/+18): 10^-11 to 10^-5 mol/L tested
Method: The method for the selection of stable hepatoma transformants with high expression of pOGH (ANG N-1498/+18) was similar to that described previously for opossum kidney cells (Wang TT et al., Kidney Int., 1994, 46:703-710). Briefly, plasmids pOGH (ANG N-1498/+18) and pRSV-Neo fusion genes were co-transfected (20 μg each) into Hep G-2 cells (1×10^6 cells) utilizing calcium phosphate-mediated endocytosis (Ming M. et al., Am. J. Hypertens., 1993, 6:141-148). After transfection, the cells were cultured overnight in 5.0 ml of DMEM containing 10% FBS. Then the medium was replaced with fresh medium containing 10% FBS and 500 μg/ml of aminoglycoside G 418 (Geneticin, Gibco Inc.). The stable transformants which were able to grow in the presence of G 418 and which secreted high levels of IR-hGH into the medium were further subcloned using the method of limiting dilution. Those cells that had passed through at least three repetitions of limiting dilution and continued to secrete high levels of IR-hGH after three months in the presence of G 418 were considered to be stable clones. One clone of human hepatoma (Hep G-TW7) with pOGH (ANG N-1498/+18) integrated into the genomes of Hep G-2 cells was obtained. The clone (Hep G-TW7) was used in accordance with the present invention.
Hep G-TW7 cells were plated at a density of 1-2×10^5 cells/well in 6-well plates and incubated overnight in DMEM containing 1% depleted FBS (dFBS). Then cell growth was arrested by incubation in serum-free medium for 24 hours. Subsequently, various concentrations of AII (10^-11 to 10^-5 mol/L) were added to the culture medium containing 1% dFBS. At the end of the incubation period, media were collected and kept at -20° C. until assay for IR-hGH.
Cells were incubated for up to 24 hours in the presence of various concentrations of AII. Media were harvested after 24 hours of incubation and assayed for IR-hGH. Each point represents the mean ±S.D. of at least three dishes (*p<0.05, **p<0.01 and **p<0.005).Similar results were obtained from two other experiments. It appears that maximal stimulation of expression of the pOGH (ANG N-1498/+18) was found with 10^-9 mol/L AII (p<0.01). At other concentrations of AII, it appears that the stimulatory effect of AII is minimal or inhibited.
(§1) The radioimmunoassay kit for hGH (RIA-hGH) was a gift from NIADDK, NIH, USA. The double antibody RIA procedure was similar to that previously used for the radioimmunoassay of ovine placental lactogen (Chan JSD et al., Endocrinology, 1978, 102:1606-1613). NIAMDD-hGH-1 (AFP-4793 B) was used for both iodination and as a hormone standard.
Hep G-TW7 cells were plated at a density of 1-2×10^5 cells/well in 6-well plates and incubated overnight in DMEM containing 1% depleted fetal bovine serum (dFBS). […]

[3] = test system: expression of pOGH (ANG N-1498/+18) fusion gene in Hep G-2 cells; experiment: Transient gene transfection assay of pOGH (ANG N-1498/+18) in Hep G-2 cells, IR-hGH by RIA; assay type: cell-based, human; conditions: AII 10^-9 mol/L; for inhibition of the stimulatory effect of AII on expression of pOGH (ANG N-1498/+18): antagonist 10^-5 mol/L
Method: Plasmids or fusion genes were transfected into Hep G-2 cells utilizing calcium phosphate endocytosis as described previously (Ming M. et al., Am. J. Hypertens., 1993, 6:141-148). It was previously shown that optimal dose of DNA for gene transfection in mouse hepatoma (Hepa 1-6) cells is 20 μg of supercoiled DNA per 0.5-1×10^6 cells (Ming M. et al., Am. J. Hypertens., 1993, 6:141-148). Similar results were obtained in Hep G-2 cells. Thus, in present studies, a total of 20 μg DNA was routinely used in the cell transfection.
To study the effect of AII in the presence or absence of various AII antagonists on the expression of fusion gene in transient gene transfection assays, cells were incubated in DMEM without FBS, 10^-9 mol/L AII with or without 10^-5 mol/L AII antagonist were added on day 1 after DNA transfection. The media or cells were harvested on day 2 for assay of IR-hGH or CAT enzymatic activity, respectively.
In order to normalize the efficiency of transfection of pOGH (ANG N-1498/+18), 1 μg of pRSVCAT (a vector with the Rous Sarcoma Virus enhancer/promoter sequence fused to the 5'-end of the CAT coding sequence) was cotransfected with the pOGH (ANG N-1498/+18) (20 μg DNA). The results of pOGH (ANG N-1498/+18) were normalized to the efficiency of transfection of pRSVCAT. The levels of transfection efficiency for pOGH (ANG N-1498/+18) in human hepatoma cells was 25+12% as compared to pRSVCAT.
Results are expressed as the percentage of the control (without addition of AII antagonist, 100%), mean ±S.D. AII (10^-9 mol/L) stimulated the expression of the ANG-GH fusion gene by 1.4-fold (p<0.01) as compared to the control (absence of AII) in Hep G-2 cells. In the presence of Lorsatan™ (10^-5 mol/L) or Saralasin™ (10^-5 mol/L), the stimulatory effect of AII was inhibited.
as §1

[4] = test system: expression of pOGH (ANG N-1498/+18) in Hep G-TW7 cells stimulated by AII; experiment: Inhibition of AII-stimulated expression of pOGH (ANG N-1498/+18) in Hep G-TW7 cells, IR-hGH by RIA; assay type: cell-based, human; conditions: AII 10^-9 mol/L, 24 hours; for effect on the stimulatory effect of AII on expression of pOGH (ANG N-1498/+18): various concentrations of test substance
Method: Hep G-TW7 cells were plated at a density of 1-2×10^5 cells/well in a. 6-well plate and incubated overnight in DMEM containing 1% depleted FBS (dFBS). Then cell growth was arrested by incubation in serum-free medium for 24 hours. Subsequently, various concentrations (10^-9 to 10^-5 mol/L) of Lorsatan™, Saralasin™ and CGP 42112A™ were added to the culture medium containing 1% dFBS in the presence of 10^-9 mol/L AII and incubated for 24 hours. At the end of the incubation period, media were collected and kept at -20° C. until assay.
Cells were incubated for up to 24 hours in the presence of AII (10-9mol/L) and various concentrations of Lorsatan™ (10^-9 to 10^-5 mol/L) or Saralasin™ (10^-9 to 10^-5 mol/L) or CGP 42112A™ (10^-9 to 10^-5 mol/L). Media harvested and assayed for the level of IR-hGH.
Hep G-TW7 cells were plated at a density of 1-2×10^5 cells/well in a 6-well plate and incubated overnight in DMEM containing 1% dFBS. Then cells growth was arrested by incubation in serum-free medium for 24 hours. […] At the end of the incubation period, media were collected and kept at -20° C. until assay.
Media were harvested and assayed for the level of IR-hGH.
The radioimmunoassay kit for hGH (RIA-hGH) was a gift from NIADDK, NIH, USA. […] NIAMDD-hGH-1 (AFP-4793 B) was used for both iodination and as a hormone standard.

[5] = test system: expression of pOCAT (ANG N-1498/+18) in hepatoma cells; experiment: Transient gene transfection of pOCAT (ANG N-1498/+18) in the presence of hGH, CAT assay; assay type: cell-based, human; conditions: hGH as high as 4.5 mmol/L
Description: The method for the CAT assay has been described previously (Ming M. et al., Am. J. Hypertens., 1993, 6:141-148). The results of all CAT assays are given as a mean+S.D. in triplicates.
In accordance with the present invention, the plasmid pOGH (ANG N-1498/+18) was employed to study the effect of AII (FIGS. 2 to 6). Since receptors for hGH are presented in Hep G-2 cells, this raised the possibility that the hGH secreted into the medium may have a stimulatory effect on the expression of the ANG gene. Thus, in order to investigate this possibility, transient gene transfection experiments were performed by employing pOCAT (ANG N-1498/+18) (Ming M. et al., Am. J. Hypertens., 1993, 6:141-148), in the presence of hGH. […] The use of plasmid pOGH (ANG N-1498/+18) in accordance with the present invention is appropriate.

Compound: Nc1ncnc2c1nc(Br)n2[C@@H]1O[C@@H]2COP(=O)(O)O[C@H]2[C@H]1O [8-Br-cAMP, 8-Bromo-cAMP]
- effect on the stimulatory effect of dexamethasone on expression of ANG-CAT fusion genes ([1]; added with DEX): enhanced the stimulatory effect
- effect on expression of ANG-CAT fusion genes, substance alone [1]: no stimulatory effect

Compound: CC[C@H](C)[C@H](NC(=O)[C@H](Cc1ccc(O)cc1)NC(=O)[C@@H](NC(=O)[C@@H](N)CCCNC(=N)N)C(C)C)C(=O)N[C@@H](Cc1c[nH]cn1)C(=O)N1CCC[C@H]1C(=O)N[C@@H](Cc1ccccc1)C(=O)O [AIII, angiotensin III]
- effective dose for stimulating the expression of pOGH (ANG N-1498/+18) [2]: > 10^-5 mol/L

Compound: CCCCc1nc(Cl)c(CO)n1Cc1ccc(-c2ccccc2-c2nn[nH]n2)cc1 [Lorsatan]
- inhibition of the stimulatory effect of AII on expression of pOGH (ANG N-1498/+18) [3]: inhibited
- effect on the stimulatory effect of AII on expression of pOGH (ANG N-1498/+18) [4]: inhibits the stimulatory effect of AII
- minimal effective concentration ([4]; Homo sapiens, read-out: effective dose for the inhibition of the AII-stimulated expression of pOGH (ANG N-1498/+18)): 0.001 µM

Compound: CNCC(=O)N[C@@H](CCCN=C(N)N)C(=O)N[C@H](C(=O)N[C@@H](Cc1ccc(O)cc1)C(=O)N[C@H](C(=O)N[C@@H](Cc1cnc[nH]1)C(=O)N1CCC[C@H]1C(=O)N[C@@H](C)C(=O)O)C(C)C)C(C)C [Saralasin]
- inhibition of the stimulatory effect of AII on expression of pOGH (ANG N-1498/+18) [3]: inhibited
- effective dose for the inhibition of the AII-stimulated expression of pOGH (ANG N-1498/+18) [4]: 10^-7 mol/L
- effect on the stimulatory effect of AII on expression of pOGH (ANG N-1498/+18) [4]: inhibits the stimulatory effect of AII

Compound: CN[C@@H]1C[C@H]2O[C@@](C)([C@@H]1OC)n1c3ccccc3c3c4c(c5c6ccccc6n2c5c31)C(=O)NC4 [Staurosporine]
- effect on the stimulatory effect of AII on expression of pOGH (ANG N-1498/+18) [4]: inhibits the stimulatory effect of AII

Compound: C[C@@H]1C[C@H]2[C@@H]3CCC4=CC(=O)C=C[C@]4(C)[C@@]3(F)[C@@H](O)C[C@]2(C)[C@@]1(O)C(=O)CO [dexamethasone]
- effect on expression of ANG-CAT fusion genes, substance alone [1]: stimulates the expression

Compound: CGP 42112A
- inhibition of the stimulatory effect of AII on expression of pOGH (ANG N-1498/+18) [3]: no inhibitory effect
- effective dose for the inhibition of the AII-stimulated expression of pOGH (ANG N-1498/+18) [4]: > 10^-5 mol/L

Compound: angiotensin I (DRVYIHPFHL; Angiotensin-1; UniProt P01019 25-34, looked up) [AI]
- concentration giving maximal stimulation of expression of pOGH (ANG N-1498/+18) [2]: 10^-7 mol/L

Compound: angiotensin II (DRVYIHPF; Angiotensin-2; UniProt P01019 25-32, looked up) [AII, peptide derived from angiotensinogen; stimulus of ANG gene expression]
- stimulation of the expression of the ANG-GH fusion gene as compared to the control (absence of AII) ([3]; p<0.01, 0.001 µM): 1.4 fold
- effective dose for stimulating the expression of pOGH (ANG N-1498/+18) [2]: 10^-9 mol/L
- concentration giving maximal stimulation of expression of pOGH (ANG N-1498/+18) [2]: 10^-9 mol/L

Compound: hGH: human growth hormone
- effect of hGH on expression of pOCAT (ANG N-1498/+18) [5]: No significant increase
